Test results taken from US12691046B2, “Ester compositions” (Evonik Operations GmbH, priority 2021, dated 2026).

How the values were obtained:
[1] = Pigment/powder dispersion: increase in viscosity of the oil (Brookfield); format: physicochemical; details: for Increase in viscosity: 60% emollient + 40% pigment/powder mixture (Table 2), Brookfield, spindle 5, 50 rpm at 20° C.; for dispersibility of the pigment/powder mixture in the oil: judged from the increase in viscosity
Source text: Alkyl carboxylates according to the invention can help in the wetting of hydrophobized pigments and accordingly can be widely used in coloured cosmetics. The pigment wetting properties of cosmetic oils can be determined by measuring the viscosity of the pure oil, in comparison with the viscosity of the oil after dispersing a defined amount of pigments. The smaller the increase in viscosity thus determined, the better the property of an oil in wetting pigments on the surface and accordingly in dispersing.
The viscosities of the oils before addition of the pigment/powder mixture are determined using a Brookfield viscometer, spindle 5, 50 rpm at 20° C. After dispersion of the pigment/powder mixture, the viscosity is again determined in an identical way.

[2] = Mixtures of pure pigments with cosmetic oil: increase in viscosity (rheometer); format: physicochemical; details: for dispersibility of pure pigments in the oil: judged from the increase in viscosity; for Increase in viscosity, Carbon Black (CI77266, UniPure Black LC 902, Sensient): pigment:oil 15:85 w/w; for Increase in viscosity, Carbon Black (CI77266, UniPure Black LC 902, Sensient) / Increase in viscosity, (Yellow) Iron Oxide (CI 77492); Dimethicone (BYO-DS4, KOBO) / Increase in viscosity, (Black) Iron Oxides (CI 77499); Dimethicone (BYO-DS3, KOBO) / Increase in viscosity, Titanium Dioxide (CI 77891); Dimethicone (DHL-TRI-77891, US Cosmetics) / Increase in viscosity, (Red) Iron Oxides (CI 77491); Dimethicone (BYO-DS3, KOBO): rheometer MCR 302, 20° C., 1/100 sec, triplicate averaged; for Increase in viscosity, (Yellow) Iron Oxide (CI 77492); Dimethicone (BYO-DS4, KOBO): pigment:oil 40:60 w/w; for Increase in viscosity, (Black) Iron Oxides (CI 77499); Dimethicone (BYO-DS3, KOBO) / Increase in viscosity, Titanium Dioxide (CI 77891); Dimethicone (DHL-TRI-77891, US Cosmetics): pigment:oil 60:40 w/w; for Increase in viscosity, (Red) Iron Oxides (CI 77491); Dimethicone (BYO-DS3, KOBO): pigment:oil 65:35 w/w
Procedure: Here too, the pigment wetting properties of cosmetic oils can be determined by measuring the viscosity of the pure oil, in comparison with the viscosity of the oil after dispersing a defined amount of the pure pigment. The smaller the increase in viscosity thus determined, the better the property of an oil in wetting pigments on the surface and accordingly in dispersing.
The mixture is then stirred for 3 min at 3,500 rpm's and placed onto rheometer for measurement (Anton Paar Modular Compact Rheometer model MCR 302, 20° C., 1/100 sec). The viscosities of the neat cosmetics oils are also measured. Pigment mixtures and neat cosmetic oils are run in triplicate and the results averaged.
The increase in viscosity comparing the neat cosmetic oil and the pigment/cosmetic oil mixture is represented below (given in mPa·s): […]

SMILES	Increase in viscosity [1] [mPa · s]	dispersibility of the pigment/powder mixture in the oil [1]	dispersibility of pure pigments in the oil [2]	Increase in viscosity, Carbon Black (CI77266, UniPure Black LC 902, Sensient) [2] [mPa·s]	Increase in viscosity, (Yellow) Iron Oxide (CI 77492); Dimethicone (BYO-DS4, KOBO) [2] [mPa·s]	Increase in viscosity, (Black) Iron Oxides (CI 77499); Dimethicone (BYO-DS3, KOBO) [2] [mPa·s]	Increase in viscosity, Titanium Dioxide (CI 77891); Dimethicone (DHL-TRI-77891, US Cosmetics) [2] [mPa·s]	Increase in viscosity, (Red) Iron Oxides (CI 77491); Dimethicone (BYO-DS3, KOBO) [2] [mPa·s]
CCCCCCCCCCCCCCCCOC(=O)C(CC)CCCC (stereo not shown) [Cetyl Ethylhexanoate]	2520	improved	improved	625	2357	8718	807	5393
CCCCCCCCCCCC(=O)OCCC(C)C [Dermofeel ® sensolv, Isoamyl Laurate]	1820	improved	improved	223	195	458	121	2238
